Legend:
[1] = human
[2] = human; remark: listed apart in the source
[3] = Highest frequency of acute liver toxicity observed during clinical trials, expressed as a percentage. [column '% AIGUE' in source]; settings: human
[4] = human; remark: listed apart in the source
[5] = human; remark: listed apart in the source
[6] = human; remark: listed apart in the source
[7] = human; remark: listed apart in the source
[8] = Highest frequency of moderate liver toxicity observed during clinical trials, expressed as a percentage. [column '% BIOL' in source]; settings: human
[9] = human; remark: listed apart in the source
[10] = human; remark: listed apart in the source
[11] = human; remark: listed apart in the source
[12] = human, serum, 4383 h
[13] = human, serum
[14] = human, serum; remark: listed apart in the source
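Throughout, for Hepatotoxicity (association with vascular disease): count of indexed literature references reporting vascular liver injury in humans, e.g. peliosis hepatitis, hepatic veno-occlusive disease or Budd-Chiari syndrome.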
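Throughout, for Hepatotoxicity (benign tumour): value is a count of indexed literature references citing a benign tumour confirmed by histopathology.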
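Throughout, for Hepatotoxicity (choleostasis): human cholestatic liver injury, shown by histopathology or by peak ALT or AST elevation over alkaline phosphatase ratio below 2, value counts indexed literature reports.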
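Throughout, for Hepatotoxicity (chronic liver disease): chronic liver injury confirmed by histopathology or persistently raised serum aminotransferase activity beyond 6 months, value given as the count of indexed literature references.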
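Throughout, for Hepatotoxicity (cirrhosis): value is a count of indexed literature references reporting cirrhosis confirmed by histopathology.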
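Throughout, for Hepatotoxicity (cytolytic): human cytolytic liver injury, shown by histopathology or by a ratio above 5 of peak ALT or AST elevation to alkaline phosphatase elevation, value counts indexed references.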
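Throughout, for Hepatotoxicity (granulomatous hepatitis): value is a count of indexed literature references reporting granulomatous liver disease confirmed by histopathology.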
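Throughout, for Hepatotoxicity (malignant tumour): malignant tumour confirmed by histopathology, value gives the count of indexed literature references reporting it.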
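Throughout, for Hepatotoxicity (severe hepatitis): human clinical data: severe hepatitis, meaning potentially life-threatening liver failure or clinically observed cases, the value counts how many indexed literature references report it.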
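Throughout, for Hepatotoxicity (steatosis): steatosis confirmed by histopathology, value is the count of indexed references.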

## NC1CCN(c2nc3c(cc2F)c(=O)c(C(=O)O)cn3-c2ccc(F)cc2F)C1 (centres undefined) [TOSUFLOXACIN]
[1]
  Hepatotoxicity (benign tumour): 0
[2]
  Hepatotoxicity (granulomatous hepatitis): 0
[3]
  Hepatotoxicity (acute): 0%
[4]
  Hepatotoxicity (cytolytic): 0
[5]
  Hepatotoxicity (cirrhosis): 0
[6]
  Hepatotoxicity (steatosis): 0
[7]
  Hepatotoxicity (choleostasis): 0
[8]
  Hepatotoxicity (moderate): 6.1%
[9]
  Hepatotoxicity (severe hepatitis): 0
[10]
  Hepatotoxicity (malignant tumour): 0
[11]
  Hepatotoxicity (association with vascular disease): 0
[12]
  Hepatotoxicity (chronic liver disease): 0
[13]
  Hepatotoxicity (acute): 0
[14]
  Hepatotoxicity (moderate): 3

## TINZAPARIN SODIUM
[1]
  Hepatotoxicity (benign tumour): 0
[2]
  Hepatotoxicity (granulomatous hepatitis): 0
[3]
  Hepatotoxicity (acute): 0%
[4]
  Hepatotoxicity (cytolytic): 0
[5]
  Hepatotoxicity (cirrhosis): 0
[6]
  Hepatotoxicity (steatosis): 0
[7]
  Hepatotoxicity (choleostasis): 0
[8]
  Hepatotoxicity (moderate): 35%
[9]
  Hepatotoxicity (severe hepatitis): 0
[10]
  Hepatotoxicity (malignant tumour): 0
[11]
  Hepatotoxicity (association with vascular disease): 0
[12]
  Hepatotoxicity (chronic liver disease): 0
[13]
  Hepatotoxicity (acute): 0
[14]
  Hepatotoxicity (moderate): 3

## N[C@@H]1CN(c2c(F)cc3c(=O)c(C(=O)O)cn([C@@H]4C[C@@H]4F)c3c2Cl)CC12CC2 [SITAFLOXACIN ANHYDROUS]
[1]
  Hepatotoxicity (benign tumour): 0
[2]
  Hepatotoxicity (granulomatous hepatitis): 0
[3]
  Hepatotoxicity (acute): 0%
[4]
  Hepatotoxicity (cytolytic): 0
[5]
  Hepatotoxicity (cirrhosis): 0
[6]
  Hepatotoxicity (steatosis): 0
[7]
  Hepatotoxicity (choleostasis): 0
[8]
  Hepatotoxicity (moderate): 23.2%
[9]
  Hepatotoxicity (severe hepatitis): 0
[10]
  Hepatotoxicity (malignant tumour): 0
[11]
  Hepatotoxicity (association with vascular disease): 0
[12]
  Hepatotoxicity (chronic liver disease): 0
[13]
  Hepatotoxicity (acute): 0
[14]
  Hepatotoxicity (moderate): 6

## C#CC(O)(/C=C/Cl)CC (centres undefined) [ETHCHLORVYNOL]
[1]
  Hepatotoxicity (benign tumour): 0
[2]
  Hepatotoxicity (granulomatous hepatitis): 0
[3]
  Hepatotoxicity (acute): 0%
[4]
  Hepatotoxicity (cytolytic): 0
[5]
  Hepatotoxicity (cirrhosis): 0
[6]
  Hepatotoxicity (steatosis): 0
[7]
  Hepatotoxicity (choleostasis): 2
[8]
  Hepatotoxicity (moderate): 0%
[9]
  Hepatotoxicity (severe hepatitis): 0
[10]
  Hepatotoxicity (malignant tumour): 0
[11]
  Hepatotoxicity (association with vascular disease): 0
[12]
  Hepatotoxicity (chronic liver disease): 0
[13]
  Hepatotoxicity (acute): 2
[14]
  Hepatotoxicity (moderate): 0

## O=C(O[C@@H]1C[C@@H]2C[C@H]3C[C@H](C1)N2CC3=O)c1c[nH]c2ccccc12 [DOLASETRON]
[1]
  Hepatotoxicity (benign tumour): 0
[2]
  Hepatotoxicity (granulomatous hepatitis): 0
[3]
  Hepatotoxicity (acute): 0%
[4]
  Hepatotoxicity (cytolytic): 0
[5]
  Hepatotoxicity (cirrhosis): 0
[6]
  Hepatotoxicity (steatosis): 0
[7]
  Hepatotoxicity (choleostasis): 0
[8]
  Hepatotoxicity (moderate): 6.7%
[9]
  Hepatotoxicity (severe hepatitis): 0
[10]
  Hepatotoxicity (malignant tumour): 0
[11]
  Hepatotoxicity (association with vascular disease): 0
[12]
  Hepatotoxicity (chronic liver disease): 0
[13]
  Hepatotoxicity (acute): 0
[14]
  Hepatotoxicity (moderate): 1

## O=c1n(CC2CO2)c(=O)n(CC2CO2)n1CC1CO1 (centres undefined) [ANAXIRONE]
[1]
  Hepatotoxicity (benign tumour): 0
[2]
  Hepatotoxicity (granulomatous hepatitis): 0
[3]
  Hepatotoxicity (acute): 0%
[4]
  Hepatotoxicity (cytolytic): 0
[5]
  Hepatotoxicity (cirrhosis): 0
[6]
  Hepatotoxicity (steatosis): 0
[7]
  Hepatotoxicity (choleostasis): 0
[8]
  Hepatotoxicity (moderate): 0%
[9]
  Hepatotoxicity (severe hepatitis): 0
[10]
  Hepatotoxicity (malignant tumour): 0
[11]
  Hepatotoxicity (association with vascular disease): 0
[12]
  Hepatotoxicity (chronic liver disease): 0
[13]
  Hepatotoxicity (acute): 0
[14]
  Hepatotoxicity (moderate): 1

## CC(C)[C@H](N)C(=O)OCC(CO)OCn1cnc2c(=O)nc(N)[nH]c21 (some centres undefined) [VALGANCICLOVIR]
[1]
  Hepatotoxicity (benign tumour): 0
[2]
  Hepatotoxicity (granulomatous hepatitis): 0
[3]
  Hepatotoxicity (acute): 0%
[4]
  Hepatotoxicity (cytolytic): 0
[5]
  Hepatotoxicity (cirrhosis): 0
[6]
  Hepatotoxicity (steatosis): 0
[7]
  Hepatotoxicity (choleostasis): 0
[8]
  Hepatotoxicity (moderate): 3%
[9]
  Hepatotoxicity (severe hepatitis): 0
[10]
  Hepatotoxicity (malignant tumour): 0
[11]
  Hepatotoxicity (association with vascular disease): 0
[12]
  Hepatotoxicity (chronic liver disease): 0
[13]
  Hepatotoxicity (acute): 0
[14]
  Hepatotoxicity (moderate): 1

## CN1CCN(CC(=O)N2c3ccccc3C(=O)Nc3cccnc32)CC1 [PIRENZEPINE]
[1]
  Hepatotoxicity (benign tumour): 0
[2]
  Hepatotoxicity (granulomatous hepatitis): 0
[3]
  Hepatotoxicity (acute): 0%
[4]
  Hepatotoxicity (cytolytic): 0
[5]
  Hepatotoxicity (cirrhosis): 0
[6]
  Hepatotoxicity (steatosis): 0
[7]
  Hepatotoxicity (choleostasis): 0
[8]
  Hepatotoxicity (moderate): 0.7%
[9]
  Hepatotoxicity (severe hepatitis): 0
[10]
  Hepatotoxicity (malignant tumour): 0
[11]
  Hepatotoxicity (association with vascular disease): 0
[12]
  Hepatotoxicity (chronic liver disease): 0
[13]
  Hepatotoxicity (acute): 0
[14]
  Hepatotoxicity (moderate): 2

## Cc1cc(NS(=O)(=O)c2ccc(N)cc2)nc(C)n1 [SULFISOMIDINE]
[1]
  Hepatotoxicity (benign tumour): 0
[2]
  Hepatotoxicity (granulomatous hepatitis): 0
[3]
  Hepatotoxicity (acute): 0%
[4]
  Hepatotoxicity (cytolytic): 0
[5]
  Hepatotoxicity (cirrhosis): 0
[6]
  Hepatotoxicity (steatosis): 0
[7]
  Hepatotoxicity (choleostasis): 0
[8]
  Hepatotoxicity (moderate): 0%
[9]
  Hepatotoxicity (severe hepatitis): 0
[10]
  Hepatotoxicity (malignant tumour): 0
[11]
  Hepatotoxicity (association with vascular disease): 0
[12]
  Hepatotoxicity (chronic liver disease): 0
[13]
  Hepatotoxicity (acute): 1
[14]
  Hepatotoxicity (moderate): 0

## C[C@@H](O)[C@H]1C(=O)N2C(C(=O)O)=C(S[C@@H]3CN[C@H](C(=O)N(C)C)C3)[C@H](C)[C@H]12 [MEROPENEM]
[1]
  Hepatotoxicity (benign tumour): 0
[2]
  Hepatotoxicity (granulomatous hepatitis): 0
[3]
  Hepatotoxicity (acute): 5.3%
[4]
  Hepatotoxicity (cytolytic): 0
[5]
  Hepatotoxicity (cirrhosis): 0
[6]
  Hepatotoxicity (steatosis): 0
[7]
  Hepatotoxicity (choleostasis): 0
[8]
  Hepatotoxicity (moderate): 48.1%
[9]
  Hepatotoxicity (severe hepatitis): 0
[10]
  Hepatotoxicity (malignant tumour): 0
[11]
  Hepatotoxicity (association with vascular disease): 0
[12]
  Hepatotoxicity (chronic liver disease): 0
[13]
  Hepatotoxicity (acute): 1
[14]
  Hepatotoxicity (moderate): 92

## NYSTATIN
[1]
  Hepatotoxicity (benign tumour): 0
[2]
  Hepatotoxicity (granulomatous hepatitis): 0
[3]
  Hepatotoxicity (acute): 0%
[4]
  Hepatotoxicity (cytolytic): 1
[5]
  Hepatotoxicity (cirrhosis): 0
[6]
  Hepatotoxicity (steatosis): 0
[7]
  Hepatotoxicity (choleostasis): 0
[8]
  Hepatotoxicity (moderate): 33.3%
[9]
  Hepatotoxicity (severe hepatitis): 0
[10]
  Hepatotoxicity (malignant tumour): 0
[11]
  Hepatotoxicity (association with vascular disease): 0
[12]
  Hepatotoxicity (chronic liver disease): 0
[13]
  Hepatotoxicity (acute): 1
[14]
  Hepatotoxicity (moderate): 3

## ETARACIZUMAB
[1]
  Hepatotoxicity (benign tumour): 0
[2]
  Hepatotoxicity (granulomatous hepatitis): 0
[3]
  Hepatotoxicity (acute): 0%
[4]
  Hepatotoxicity (cytolytic): 0
[5]
  Hepatotoxicity (cirrhosis): 0
[6]
  Hepatotoxicity (steatosis): 0
[7]
  Hepatotoxicity (choleostasis): 0
[8]
  Hepatotoxicity (moderate): 77.8%
[9]
  Hepatotoxicity (severe hepatitis): 0
[10]
  Hepatotoxicity (malignant tumour): 0
[11]
  Hepatotoxicity (association with vascular disease): 0
[12]
  Hepatotoxicity (chronic liver disease): 0
[13]
  Hepatotoxicity (acute): 0
[14]
  Hepatotoxicity (moderate): 1

## OCc1cc(C(O)CNCCCCCCOCCCCc2ccccc2)ccc1O (centres undefined) [SALMETEROL]
[1]
  Hepatotoxicity (benign tumour): 0
[2]
  Hepatotoxicity (granulomatous hepatitis): 0
[3]
  Hepatotoxicity (acute): 0%
[4]
  Hepatotoxicity (cytolytic): 0
[5]
  Hepatotoxicity (cirrhosis): 0
[6]
  Hepatotoxicity (steatosis): 0
[7]
  Hepatotoxicity (choleostasis): 0
[8]
  Hepatotoxicity (moderate): 1.8%
[9]
  Hepatotoxicity (severe hepatitis): 0
[10]
  Hepatotoxicity (malignant tumour): 0
[11]
  Hepatotoxicity (association with vascular disease): 0
[12]
  Hepatotoxicity (chronic liver disease): 0
[13]
  Hepatotoxicity (acute): 0
[14]
  Hepatotoxicity (moderate): 1

## O=C(OCC(COC(=O)c1cccnc1)(COC(=O)c1cccnc1)COC(=O)c1cccnc1)c1cccnc1 [NICERITROL]
[1]
  Hepatotoxicity (benign tumour): 0
[2]
  Hepatotoxicity (granulomatous hepatitis): 0
[3]
  Hepatotoxicity (acute): 0%
[4]
  Hepatotoxicity (cytolytic): 0
[5]
  Hepatotoxicity (cirrhosis): 0
[6]
  Hepatotoxicity (steatosis): 0
[7]
  Hepatotoxicity (choleostasis): 0
[8]
  Hepatotoxicity (moderate): 5%
[9]
  Hepatotoxicity (severe hepatitis): 0
[10]
  Hepatotoxicity (malignant tumour): 0
[11]
  Hepatotoxicity (association with vascular disease): 0
[12]
  Hepatotoxicity (chronic liver disease): 0
[13]
  Hepatotoxicity (acute): 0
[14]
  Hepatotoxicity (moderate): 1

## CC(C(=O)O)c1ccc(CC2CCCC2=O)cc1 (centres undefined) [LOXOPROFEN]
[1]
  Hepatotoxicity (benign tumour): 0
[2]
  Hepatotoxicity (granulomatous hepatitis): 0
[3]
  Hepatotoxicity (acute): 0%
[4]
  Hepatotoxicity (cytolytic): 0
[5]
  Hepatotoxicity (cirrhosis): 0
[6]
  Hepatotoxicity (steatosis): 0
[7]
  Hepatotoxicity (choleostasis): 0
[8]
  Hepatotoxicity (moderate): 0%
[9]
  Hepatotoxicity (severe hepatitis): 1
[10]
  Hepatotoxicity (malignant tumour): 0
[11]
  Hepatotoxicity (association with vascular disease): 0
[12]
  Hepatotoxicity (chronic liver disease): 0
[13]
  Hepatotoxicity (acute): 1
[14]
  Hepatotoxicity (moderate): 0

## Nc1nc2c(ncn2COCCO)c(=O)[nH]1 [ACYCLOVIR]
[1]
  Hepatotoxicity (benign tumour): 0
[2]
  Hepatotoxicity (granulomatous hepatitis): 0
[3]; Liver
  Hepatotoxicity (acute): 1.9%
[4]
  Hepatotoxicity (cytolytic): 1
[5]
  Hepatotoxicity (cirrhosis): 0
[6]
  Hepatotoxicity (steatosis): 0
[7]
  Hepatotoxicity (choleostasis): 0
[8]; Liver
  Hepatotoxicity (moderate): 50%
[9]; Liver
  Hepatotoxicity (severe hepatitis): 0
[10]
  Hepatotoxicity (malignant tumour): 0
[11]
  Hepatotoxicity (association with vascular disease): 0
[12]
  Hepatotoxicity (chronic liver disease): 0
[13]
  Hepatotoxicity (acute): 1
[14]
  Hepatotoxicity (moderate): 18

Reference: ChEMBL document CHEMBL3137667, “[Drug-induced liver injury; fourteenth updated edition of the bibliographic database of liver injuries and related drugs]” (Gastroenterol Clin Biol, 2004)
